Tests used:
Assay type in all cases: biochemical
PKC theta [1] = molecular target: T1, PKC theta (Homo sapiens, UniProt Q04759); experiment: PKC Theta III assay, similar to PKC theta I with fluorescence read out; conditions: fluorescence read out rather than UV
Procedure: An assay buffer solution was prepared which consisted of 100 mM HEPES (pH 7.5), 10 mM MgCl2, 25 mM NaCl, 0.1 mM EDTA and 0.01% Brij. […] To 60 μL of this enzyme buffer, in a 384 well plate, was added 2 μL of VRT stock solution in DMSO. The mixture was allowed to equilibrate for 10 mins at 30° C. The enzyme reaction was initiated by the addition of 5 μL stock ATP solution prepared in assay buffer to a final assay concentration of 240 μM. Initial rate data was determined from the rate of change of absorbance at 340 nm (corresponding to stoichiometric consumption of NADH) using a Molecular Devices Spectramax plate reader (Sunnyvale, Calif.) over 15 mins at 30° C. For each Ki determination 12 data points covering the VRT concentration range of 0-20 μM were obtained in duplicate (DMSO stocks were prepared from an initial 10 mM VRT stock with subsequent 1:2 serial dilutions). Ki values were calculated from initial rate data by non-linear regression using the Prism software package (Prism 4.0a, Graphpad Software, San Diego, Calif.).
Compounds tested in an assay similar to PKC theta I above with a fluorescence read out rather than a UV read out gave the following results: D compounds are (2-aminopyridin-3-yl)(6-(1-benzylpiperidin-4-ylamino)pyridin-2-yl)methanone, and (2-aminopyridin-3-yl)(6-(2,3-dihydroxypropylamino)pyridin-2-yl)methanone (naming by ChemDraw Ultre version 10.0).

PKC theta [2] = molecular target: T1, PKC theta; experiment: PKC Theta II 33P radiometric kinase assay; conditions: 0.5 nM PKC theta, 240 μM ATP, [γ-33P] ATP, 25° C., compound range 0-0.25 μM
Procedure: An assay buffer solution was prepared which consisted of 100 mM HEPES (pH 7.5), 10 mM MgCl2, 25 mM NaCl, 0.1 mM EDTA and 0.01% Brij. An enzyme buffer containing reagents to final assay concentrations of 0.002% Triton X-100, 200 μg/mL Phosphatidylserine, 20 μg/mL Diacylglycerol, 2 mM DTT, 150 μM substrate peptide ([…]) and 0.5 nM PKC theta kinase was prepared in assay buffer. To 22 μL of this enzyme buffer, in a 96 well plate, was added 2 μL of VRT stock solution in DMSO. The mixture was allowed to equilibrate for 10 mins at 25° C. […] ATP.
The reaction was stopped after 60 minutes by the addition of 100 μL 100 mM phosphoric acid. A phosphocellulose 96 well plate (Millipore, Cat no. MAPHNOB) was washed with […] 100 mM phosphoric acid prior to the addition of the reaction mixture (120 μL) and was left to soak for at least 30 minutes, prior to wash steps (4×200 μL 100 mM phosphoric acid). After drying, 100 μL Optiphase ‘SuperMix’ liquid scintillation cocktail (Perkin Elmer) was added to the well prior to scintillation counting (1450 Microbeta Liquid Scintillation Counter, Wallac).
For each Ki determination, 11 data points covering the VRT concentration range of 0-0.25 μM were obtained in duplicate (DMSO stocks were prepared from an initial 10 mM VRT stock with subsequent 1:2 serial dilutions). Ki values were calculated from initial rate data by non-linear regression using the Prism software package (Prism 4.0a, Graphpad Software, San Diego, Calif.).

PKC delta kinase = PKC delta kinase (Homo sapiens, UniProt Q05655); experiment: PKC Delta coupled-enzyme kinase assay; conditions: 46 nM PKC delta, 150 μM ATP, 30° C.; read-out: Ki PKC delta
Chain of PKC delta kinase (Q05655 whole entry): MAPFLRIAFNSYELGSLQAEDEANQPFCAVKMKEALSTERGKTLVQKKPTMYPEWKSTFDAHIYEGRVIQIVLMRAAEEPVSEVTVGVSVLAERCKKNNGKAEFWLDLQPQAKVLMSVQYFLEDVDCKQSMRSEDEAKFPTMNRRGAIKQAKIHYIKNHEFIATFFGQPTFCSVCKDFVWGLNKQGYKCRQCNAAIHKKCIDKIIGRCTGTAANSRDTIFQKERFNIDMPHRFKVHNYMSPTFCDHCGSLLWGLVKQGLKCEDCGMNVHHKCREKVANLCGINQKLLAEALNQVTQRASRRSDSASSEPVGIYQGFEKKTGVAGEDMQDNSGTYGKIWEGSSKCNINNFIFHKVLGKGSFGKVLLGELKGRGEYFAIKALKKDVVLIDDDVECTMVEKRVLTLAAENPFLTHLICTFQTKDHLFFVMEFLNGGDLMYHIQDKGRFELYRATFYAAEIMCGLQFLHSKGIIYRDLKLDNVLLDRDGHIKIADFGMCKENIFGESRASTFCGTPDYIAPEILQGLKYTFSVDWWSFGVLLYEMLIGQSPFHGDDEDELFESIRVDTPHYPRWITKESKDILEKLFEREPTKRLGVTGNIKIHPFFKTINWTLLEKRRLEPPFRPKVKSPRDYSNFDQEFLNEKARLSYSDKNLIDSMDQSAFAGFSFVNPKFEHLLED
Procedure, shortened: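 Assay buffer was 100 mM HEPES pH 7.5, 10 mM MgCl2, 25 mM NaCl, 0.1 mM EDTA, 0.01% Brij. Enzyme buffer was equilibrated with compound in DMSO for 10 min at 30 °C. Ki values were derived by non-linear regression of initial rate data.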

PKC alpha kinase = PKC alpha kinase (Homo sapiens, UniProt P17252); experiment: PKC Alpha coupled-enzyme kinase assay; conditions: 4.5 nM PKC alpha, 130 μM ATP, 30° C.
Procedure, shortened: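 Coupled-enzyme assay in HEPES pH 7.5 with MgCl2, CaCl2, EDTA and Brij; enzyme preincubated with compound 10 min at 30 °C, reaction started with ATP (final 130 μM).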

T1 sequence (Q04759 whole entry): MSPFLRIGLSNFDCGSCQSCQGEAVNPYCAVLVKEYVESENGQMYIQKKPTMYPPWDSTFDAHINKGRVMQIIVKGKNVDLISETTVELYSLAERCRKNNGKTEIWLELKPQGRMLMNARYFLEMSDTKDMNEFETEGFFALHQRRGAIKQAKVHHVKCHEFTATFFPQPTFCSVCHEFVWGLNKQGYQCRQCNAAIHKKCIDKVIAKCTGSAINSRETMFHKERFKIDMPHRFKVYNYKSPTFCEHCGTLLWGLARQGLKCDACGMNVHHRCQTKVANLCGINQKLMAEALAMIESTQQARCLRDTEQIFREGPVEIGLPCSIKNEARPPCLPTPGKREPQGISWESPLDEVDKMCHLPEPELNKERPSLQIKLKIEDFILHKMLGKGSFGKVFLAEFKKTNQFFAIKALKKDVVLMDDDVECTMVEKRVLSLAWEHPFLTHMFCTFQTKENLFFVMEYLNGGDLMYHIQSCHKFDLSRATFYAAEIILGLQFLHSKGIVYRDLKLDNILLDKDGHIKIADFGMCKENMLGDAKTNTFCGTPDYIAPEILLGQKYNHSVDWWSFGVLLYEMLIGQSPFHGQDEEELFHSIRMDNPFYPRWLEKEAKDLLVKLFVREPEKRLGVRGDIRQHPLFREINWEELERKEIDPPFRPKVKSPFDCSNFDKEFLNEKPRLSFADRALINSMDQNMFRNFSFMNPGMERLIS

Row | SMILES | Ki (PKC theta [1]) | Ki (PKC theta [2]) | Ki (PKC delta kinase) | Ki (PKC alpha kinase)
1 | Nc1ncccc1C(=O)c1cccc(NC2CCN(Cc3ccccc3)CC2)n1 [(2-aminopyridin-3-yl)(6-(1-benzylpiperidin-4-ylamino)pyridin-2-yl)methanone] | > 2800 nM | – | – | –
2 | Nc1ncccc1C(=O)c1cccc(NCC(O)CO)n1 (stereo not shown) [(2-aminopyridin-3-yl)(6-(2,3-dihydroxypropylamino)pyridin-2-yl)methanone] | > 2800 nM | – | – | –
3 | Nc1ncc(Br)cc1C(=O)c1cccc(N2CCCNCC2)n1 [compound 14, (6-(1,4-diazepan-1-yl)pyridin-2-yl)(2-amino-5-bromopyridin-3-yl)methanone] | – | < 50 nM | 50 to 500 nM | < 50 nM
4 | Nc1ncc(-c2ccccc2)cc1C(=O)c1cccc(N2CCCNCC2)n1 [compound 45] | – | < 50 nM | 50 to 500 nM | < 50 nM
5 | C=Cc1cnc(N)c(C(=O)c2cccc(N3CCCNCC3)n2)c1 [compound 66] | – | 50 to 500 nM | 50 to 500 nM | < 50 nM
6 | CN1CCCN(c2cccc(C(=O)c3cc(Br)cnc3N)n2)CC1 [compound 67] | – | < 50 nM | 50 to 500 nM | –
7 | Nc1ncc(Br)cc1C(=O)c1cccc(N2CCCN(C(=O)CC(F)(F)F)CC2)n1 [compound 75, 1-(4-(6-(2-amino-5-bromonicotinoyl)pyridin-2-yl)-1,4-diazepan-1-yl)-3,3,3-trifluoropropan-1-one] | – | < 50 nM | 50 to 500 nM | –
8 | C=Cc1cnc(N)c(C(=O)c2cccc(N3CCCN(C(=O)CC(F)(F)F)CC3)n2)c1 [compound 107, 1-(4-(6-(2-amino-5-vinylnicotinoyl)pyridin-2-yl)-1,4-diazepan-1-yl)-3,3,3-trifluoropropan-1-one] | – | < 50 nM | 50 to 500 nM | –
9 | C=Cc1cnc(N)c(C(=O)c2cccc(N3CCC(N)CC3)n2)c1 [compound 164] | – | 50 to 500 nM | – | –
10 | Nc1ncc(-c2c[nH]c3ccccc23)cc1C(=O)c1cccc(N2CCCNCC2)n1 [compound 179] | – | 50 to 500 nM | – | < 50 nM
11 | CC1CNCCN1c1cccc(C(=O)c2cccnc2N)n1 (stereo not shown) [compound 191] | – | 50 to 500 nM | – | –
12 | CC(C)C[C@H]1CN(c2cccc(C(=O)c3cccnc3N)n2)CCN1 [compound 193] | – | 50 to 500 nM | – | –
13 | Cn1cc(-c2cnc(N)c(C(=O)c3cccc(N4CCCNCC4)n3)c2)c2ccccc21 [compound 210] | – | 50 to 500 nM | – | < 50 nM
14 | Nc1ncc(-c2c[nH]c3ccccc23)cc1C(=O)c1cncc(N2CCCNCC2)n1 [compound 213] | – | 50 to 500 nM | – | –
15 | Nc1ncccc1C(=O)c1cccc(N2CCNC(c3cccc(Cl)c3)C2)n1 (stereo not shown) [compound 301] | – | 50 to 500 nM | – | –
16 | C=Cc1ccc(N2CCN[C@@H](CC(C)C)C2)nc1C(=O)c1cccnc1N [compound 346] | – | 50 to 500 nM | – | –
17 | C#Cc1ccc(N2CCN[C@@H](CC(C)C)C2)nc1C(=O)c1cccnc1N [compound 357] | – | 50 to 500 nM | – | –
18 | C/C=C/c1ccc(N2CCN[C@@H](CC(C)C)C2)nc1C(=O)c1cccnc1N [compound 361] | – | 50 to 500 nM | – | –
19 | CC#Cc1ccc(N2CCN[C@@H](CC(C)C)C2)nc1C(=O)c1cccnc1N [compound 402] | – | 50 to 500 nM | – | < 50 nM
